Laboratory results: ChEMBL document CHEMBL3425487, “Synthesis of new thiazolylmethoxyphenyl pyrimidines and antihyperglycemic evaluation of the pyrimidines, analogues isoxazolines and pyrazolines” (2015)

System: Rattus norvegicus
Assay: Antihyperglycemic activity in normoglycemic male albino Sprague-Dawley rat assessed as improvement in sucrose tolerance at 100 mg/kg, po by Oral sucrose tolerance test
Assay type: functional

For `Fc1ccc(C2=CC(c3ccc(OCc4csc(-c5ccccc5)n4)cc3)NC(=S)N2)cc1` (stereo not drawn), the Activity was 8.22%.
`COc1ccc(C2=NNC(c3ccc(OCc4csc(-c5ccccc5)n4)cc3)C2)cc1` (stereo not drawn) showed an Activity of 0.85%.
`S=C1NC(c2ccccc2)=CC(c2ccc(OCc3csc(-c4ccccc4)n3)cc2)N1` (stereo not drawn) showed an Activity of 0.07%.
For `O=[N+]([O-])c1ccc(C2=NOC(c3ccc(OCc4csc(-c5ccccc5)n4)cc3)C2)cc1` (stereo not drawn), the Activity was 0.91%.
Compound `O=[N+]([O-])c1ccc(C2=NNC(c3ccc(OCc4csc(-c5ccccc5)n4)cc3)C2)cc1` (stereo not drawn) has an Activity of 2.47%.
In the case of `COc1ccc(C2=NOC(c3ccc(OCc4csc(-c5ccccc5)n4)cc3)C2)cc1` (stereo not drawn), the Activity is reported as 8.37%.
Work on `Fc1ccc(C2=NNC(c3ccc(OCc4csc(-c5ccccc5)n4)cc3)C2)cc1` (stereo not drawn) yielded an Activity of 10.4%.
With `COc1ccc(C2=CC(c3ccc(OCc4csc(-c5ccccc5)n4)cc3)NC(=S)N2)cc1` (stereo not drawn) the Activity was 1.05%.
For `Fc1ccc(C2=NOC(c3ccc(OCc4csc(-c5ccccc5)n4)cc3)C2)cc1` (stereo not drawn), the Activity was 4.88%.
With `CN(C)C(=N)NC(=N)N` [METFORMIN] the Activity was 14.1%.
For `O=[N+]([O-])c1ccc(C2=CC(c3ccc(OCc4csc(-c5ccccc5)n4)cc3)NC(=S)N2)cc1` (stereo not drawn), the Activity was 7.04%.
`c1ccc(C2=NNC(c3ccc(OCc4csc(-c5ccccc5)n4)cc3)C2)cc1` (stereo not drawn) was tested, and the Activity was 7.42%.
`c1ccc(C2=NOC(c3ccc(OCc4csc(-c5ccccc5)n4)cc3)C2)cc1` (stereo not drawn) gave an Activity of 2.73%.
